What was measured:
[1] = target: T1, HiBiT-BRM fusion protein in stable HeLa cell line (Homo sapiens, UniProt P51531); experiment: HiBiT-BRM cell-based degradation assay (Nano-Glo HiBiT Lytic Detection, 24 h); set-up: DC50: scale not given here; settings: HeLa HiBiT-BRM cells; for DC50: read-out: BRM HiBit Degradation IC50; for BRM HiBit Degradation Maximum (%): top dose 30 μM
T1 construct: expressed in transfected cells
Summary of the method: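 HeLa stably expressing HiBiT-BRM; 24 h compound exposure, 10-pt 3-fold dilution from 30 μM final, duplicates. Lytic LgBiT complementation, luminescence. % degradation vs DMSO (HC) and 2 μM known BRM/BRG1 degrader (LC).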

[2] = target: T2, HiBit-BRG1 fusion protein in stable HeLa cell line expressing HiBit-BRG1 and LgBit (Homo sapiens, UniProt P51532); experiment: HiBiT-BRG1 cell-based degradation assay (Nano-Glo HiBiT, 24 h); settings: HeLa HiBit-BRG1/LgBit cells; for Dmax: top dose 30 μM, read-out: BRG1 HiBit Degradation Maximum (%); for DC50: read-out: BRMG1 HiBit Degradation IC50
T2 construct: expressed in transfected cells
Summary of the method: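 Degradation calculated from NanoBiT luminescence relative to DMSO-treated cells (high) and cells given 2 μM known BRM/BRG1 degrader (low). HeLa cells stably expressing HiBiT-BRG1 plus LgBiT were exposed to compound for 24 h before lytic HiBiT detection.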

T2 sequence (P51532 whole entry, the tested form may be a part): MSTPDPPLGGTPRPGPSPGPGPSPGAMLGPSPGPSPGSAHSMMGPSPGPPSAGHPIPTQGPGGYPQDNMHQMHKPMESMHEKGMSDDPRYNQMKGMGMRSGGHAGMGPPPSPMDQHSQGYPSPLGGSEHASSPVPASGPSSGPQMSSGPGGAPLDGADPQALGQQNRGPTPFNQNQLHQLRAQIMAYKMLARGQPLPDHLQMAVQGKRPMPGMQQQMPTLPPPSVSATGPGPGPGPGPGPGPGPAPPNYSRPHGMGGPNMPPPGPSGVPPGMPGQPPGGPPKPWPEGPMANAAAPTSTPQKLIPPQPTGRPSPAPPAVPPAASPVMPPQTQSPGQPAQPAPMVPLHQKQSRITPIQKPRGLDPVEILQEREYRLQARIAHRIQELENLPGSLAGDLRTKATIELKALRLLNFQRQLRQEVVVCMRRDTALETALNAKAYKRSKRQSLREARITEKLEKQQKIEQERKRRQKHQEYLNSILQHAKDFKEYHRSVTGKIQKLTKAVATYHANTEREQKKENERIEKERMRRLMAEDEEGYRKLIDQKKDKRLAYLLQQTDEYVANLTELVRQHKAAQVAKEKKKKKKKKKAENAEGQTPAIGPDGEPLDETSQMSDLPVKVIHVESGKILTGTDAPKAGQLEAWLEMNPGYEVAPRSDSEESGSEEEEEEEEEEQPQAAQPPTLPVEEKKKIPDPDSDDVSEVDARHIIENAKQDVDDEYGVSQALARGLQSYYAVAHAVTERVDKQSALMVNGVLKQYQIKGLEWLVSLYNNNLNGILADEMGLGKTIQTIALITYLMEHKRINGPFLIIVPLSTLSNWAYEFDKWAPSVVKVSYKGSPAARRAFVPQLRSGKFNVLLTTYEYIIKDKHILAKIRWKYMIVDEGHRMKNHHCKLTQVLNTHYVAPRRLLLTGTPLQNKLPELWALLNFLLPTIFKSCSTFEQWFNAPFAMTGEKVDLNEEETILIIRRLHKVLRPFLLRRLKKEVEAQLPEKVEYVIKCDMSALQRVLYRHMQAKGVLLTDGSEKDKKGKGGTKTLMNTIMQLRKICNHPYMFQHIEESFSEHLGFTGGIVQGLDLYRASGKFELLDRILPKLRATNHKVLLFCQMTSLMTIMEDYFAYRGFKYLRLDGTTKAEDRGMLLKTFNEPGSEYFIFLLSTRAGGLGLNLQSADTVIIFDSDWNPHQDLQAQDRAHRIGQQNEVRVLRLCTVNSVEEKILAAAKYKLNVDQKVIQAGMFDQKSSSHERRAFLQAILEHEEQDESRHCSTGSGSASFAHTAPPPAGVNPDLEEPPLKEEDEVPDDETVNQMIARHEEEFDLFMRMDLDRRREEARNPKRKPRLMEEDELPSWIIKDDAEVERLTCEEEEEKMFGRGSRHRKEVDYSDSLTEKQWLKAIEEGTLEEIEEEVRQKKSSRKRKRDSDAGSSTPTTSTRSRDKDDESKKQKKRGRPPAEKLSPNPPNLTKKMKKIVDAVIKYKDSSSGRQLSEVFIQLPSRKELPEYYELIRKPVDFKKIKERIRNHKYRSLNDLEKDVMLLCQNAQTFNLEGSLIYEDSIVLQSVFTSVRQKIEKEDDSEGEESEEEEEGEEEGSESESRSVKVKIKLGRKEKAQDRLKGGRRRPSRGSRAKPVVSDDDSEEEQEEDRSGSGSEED
T1 sequence (P51531 whole entry, the tested form may be a part): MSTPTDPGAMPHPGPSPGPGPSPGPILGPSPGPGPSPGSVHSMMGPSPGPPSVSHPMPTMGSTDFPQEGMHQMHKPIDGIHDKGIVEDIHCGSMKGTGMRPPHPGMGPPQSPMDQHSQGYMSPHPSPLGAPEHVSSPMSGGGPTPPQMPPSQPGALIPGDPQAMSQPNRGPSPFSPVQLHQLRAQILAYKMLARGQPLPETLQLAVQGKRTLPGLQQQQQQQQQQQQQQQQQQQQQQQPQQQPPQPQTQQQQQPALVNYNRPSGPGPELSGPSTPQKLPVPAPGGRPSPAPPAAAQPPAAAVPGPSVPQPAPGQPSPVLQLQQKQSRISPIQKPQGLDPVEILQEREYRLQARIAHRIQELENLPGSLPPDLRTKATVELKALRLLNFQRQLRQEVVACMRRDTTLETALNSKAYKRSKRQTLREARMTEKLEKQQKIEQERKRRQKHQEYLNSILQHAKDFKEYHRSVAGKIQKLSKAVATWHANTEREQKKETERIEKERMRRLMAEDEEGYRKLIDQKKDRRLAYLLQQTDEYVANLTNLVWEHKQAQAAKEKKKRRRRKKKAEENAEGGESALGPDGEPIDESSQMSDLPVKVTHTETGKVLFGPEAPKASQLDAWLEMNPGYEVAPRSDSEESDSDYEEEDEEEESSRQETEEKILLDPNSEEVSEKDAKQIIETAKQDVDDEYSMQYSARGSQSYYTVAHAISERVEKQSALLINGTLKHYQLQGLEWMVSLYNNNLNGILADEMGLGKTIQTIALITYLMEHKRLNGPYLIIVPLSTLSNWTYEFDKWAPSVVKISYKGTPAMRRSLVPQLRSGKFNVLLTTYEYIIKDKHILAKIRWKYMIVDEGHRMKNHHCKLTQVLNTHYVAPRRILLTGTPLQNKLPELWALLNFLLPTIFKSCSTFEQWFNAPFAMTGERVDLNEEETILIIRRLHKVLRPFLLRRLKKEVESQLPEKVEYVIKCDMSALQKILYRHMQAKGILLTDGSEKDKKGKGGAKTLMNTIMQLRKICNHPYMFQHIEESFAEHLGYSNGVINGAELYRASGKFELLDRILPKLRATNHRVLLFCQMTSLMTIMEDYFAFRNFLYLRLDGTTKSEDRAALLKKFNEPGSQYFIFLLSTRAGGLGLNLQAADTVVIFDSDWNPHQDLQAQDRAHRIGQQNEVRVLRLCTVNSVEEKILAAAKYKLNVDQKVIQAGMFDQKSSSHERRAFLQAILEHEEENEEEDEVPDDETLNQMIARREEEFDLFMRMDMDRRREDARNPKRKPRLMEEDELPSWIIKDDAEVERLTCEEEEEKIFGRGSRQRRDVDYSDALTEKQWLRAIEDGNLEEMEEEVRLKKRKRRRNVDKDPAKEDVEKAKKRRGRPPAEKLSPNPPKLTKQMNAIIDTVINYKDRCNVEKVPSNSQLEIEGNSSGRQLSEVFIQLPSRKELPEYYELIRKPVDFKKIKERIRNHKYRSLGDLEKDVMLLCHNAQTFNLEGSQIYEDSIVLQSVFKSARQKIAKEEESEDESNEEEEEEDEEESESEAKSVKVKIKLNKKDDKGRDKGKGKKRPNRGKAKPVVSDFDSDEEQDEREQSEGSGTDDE

Row | SMILES | DC50 [1] [nM] | Dmax [2] [%] | DC50 [2] [nM] | BRM HiBit Degradation Maximum (%) [1]
1 | C#Cc1cc(N2CC3(C2)CN(c2cc([C@H](C(=O)N4C[C@H](O)C[C@H]4C(=O)N[C@@H](C)c4ccc(-c5scnc5C)cc4)C(C)C)on2)C3)cc2nnc(-c3ccccc3O)cc12 [Compound 240, (2S,4R)-1-((R)-2-(3-(6-(5-ethynyl-3-(2-hydroxyphenyl)cinnolin-7-yl)-2,6-diazaspiro[3.3]heptan-2-yl)isoxazol-5-yl)-3-methylbutanoyl)-4-hydroxy-N-((S)-1-(4-(4-methylthiazol-5-yl)phenyl)ethyl)pyrrolidine-2-carboxamide] | < 10 | < 50 | – | A (“A” indicates maximum degradation ≥75%)
2 | C#Cc1cc2nnc(-c3ccccc3O)cc2cc1N1CC2(CN(c3cc([C@H](C(=O)N4C[C@H](O)C[C@H]4C(=O)N[C@@H](C)c4ccc(-c5scnc5C)cc4)C(C)C)on3)C2)C1 [Compound 241, (2S,4R)-1-((R)-2-(3-(6-(7-ethynyl-3-(2-hydroxyphenyl)cinnolin-6-yl)-2,6-diazaspiro[3.3]heptan-2-yl)isoxazol-5-yl)-3-methylbutanoyl)-4-hydroxy-N-((S)-1-(4-(4-methylthiazol-5-yl)phenyl)ethyl)pyrrolidine-2-carboxamide] | < 10 | > 75 | < 10 | A (“A” indicates maximum degradation ≥75%)
3 | C#Cc1ccc(CNC(=O)[C@@H]2C[C@@H](O)CN2C(=O)[C@H](C(C)C)n2cc(N3CC4(CN(c5ccc6cc(-c7ccccc7O)nnc6c5)C4)C3)nn2)c(OCCCOC)c1 [Compound 242, (2S,4R)-N-(4-ethynyl-2-(3-methoxypropoxy)benzyl)-4-hydroxy-1-((S)-2-(4-(6-(3-(2-hydroxyphenyl)cinnolin-7-yl)-2,6-diazaspiro[3.3]heptan-2-yl)-1H-1,2,3-triazol-1-yl)-3-methylbutanoyl)pyrrolidine-2-carboxamide] | < 10 | > 50 | < 10 | A (“A” indicates maximum degradation ≥75%)
4 | Cc1ncsc1-c1ccc([C@H](C)NC(=O)[C@@H]2C[C@@H](O)CN2C(=O)[C@@H](c2cc(-c3cnc(N4CC5(CN(c6ccc7nnc(-c8ccccc8O)cc7c6)C5)C4)nc3)no2)C(C)C)cc1 [Compound 243, (2S,4R)-4-hydroxy-1-((R)-2-(3-(2-(6-(3-(2-hydroxyphenyl)cinnolin-6-yl)-2,6-diazaspiro[3.3]heptan-2-yl)pyrimidin-5-yl)isoxazol-5-yl)-3-methylbutanoyl)-N-((S)-1-(4-(4-methylthiazol-5-yl)phenyl)ethyl)pyrrolidine-2-carboxamide] | < 10 | > 75 | < 10 | A (“A” indicates maximum degradation ≥75%)
5 | Cc1ncsc1-c1ccc([C@H](C)NC(=O)[C@@H]2C[C@@H](O)CN2C(=O)[C@@H](c2cc(N3CC4(CN(c5ccc6cc(-c7cccc(F)c7O)nnc6c5)C4)C3)no2)C(C)C)cc1 [Compound 246, (2S,4R)-1-((R)-2-(3-(6-(3-(3-fluoro-2-hydroxyphenyl)cinnolin-7-yl)-2,6-diazaspiro[3.3]heptan-2-yl)isoxazol-5-yl)-3-methylbutanoyl)-4-hydroxy-N-((S)-1-(4-(4-methylthiazol-5-yl)phenyl)ethyl)pyrrolidine-2-carboxamide] | < 10 | < 50 | – | A (“A” indicates maximum degradation ≥75%)
6 | Cc1ncsc1-c1ccc([C@H](C)NC(=O)[C@@H]2C[C@@H](O)CN2C(=O)C(C(C)C)n2cc(N3CCN(CC4CCN(c5ccc6cc(-c7ccccc7O)nnc6c5)CC4)CC3)nn2)cc1 (stereo partly drawn) [Compound 247, (2S,4R)-4-hydroxy-1-(2-(4-(4-((1-(3-(2-hydroxyphenyl)cinnolin-7-yl)piperidin-4-yl)methyl)piperazin-1-yl)-1H-1,2,3-triazol-1-yl)-3-methylbutanoyl)-N-((S)-1-(4-(4-methylthiazol-5-yl)phenyl)ethyl)pyrrolidine-2-carboxamide] | < 10 | > 75 | < 10 | A (“A” indicates maximum degradation ≥75%)
7 | Cc1ncsc1-c1ccc([C@H](C)NC(=O)[C@@H]2C[C@@H](O)CN2C(=O)C(C(C)C)n2cc(N3CCC4CCN(c5ccc6cc(-c7ccccc7O)nnc6c5)C4C3)nn2)cc1 (stereo partly drawn) [Compound 248, (2S,4R)-4-hydroxy-1-(2-(4-(1-(3-(2-hydroxyphenyl)cinnolin-7-yl)octahydro-6H-pyrrolo[2,3-c]pyridin-6-yl)-1H-1,2,3-triazol-1-yl)-3-methylbutanoyl)-N-((S)-1-(4-(4-methylthiazol-5-yl)phenyl)ethyl)pyrrolidine-2-carboxamide] | < 10 | > 75 | > 10 | A (“A” indicates maximum degradation ≥75%)

Continued, in another order:

Row | DC50 [1] [nM] | Dmax [2] [%] | DC50 [2] [nM] | SMILES | BRM HiBit Degradation Maximum (%) [1]
8 | < 10 | < 50 | – | C#Cc1ccc(CNC(=O)[C@@H]2C[C@@H](O)CN2C(=O)[C@H](C(C)C)n2cc(N3CC4(CN(c5ccc6cc(-c7ccccc7O)nnc6c5)C4)C3)nn2)c(OC)c1 [Compound 238, (2S,4R)-N-(4-ethynyl-2-methoxybenzyl)-4-hydroxy-1-((S)-2-(4-(6-(3-(2-hydroxyphenyl)cinnolin-7-yl)-2,6-diazaspiro[3.3]heptan-2-yl)-1H-1,2,3-triazol-1-yl)-3-methylbutanoyl)pyrrolidine-2-carboxamide] | A (“A” indicates maximum degradation ≥75%)
9 | < 10 | > 50 | > 10 | C#Cc1cc2cc(-c3ccccc3O)nnc2cc1N1CC2(CN(c3cc([C@H](C(=O)N4C[C@H](O)C[C@H]4C(=O)N[C@@H](C)c4ccc(-c5scnc5C)cc4)C(C)C)on3)C2)C1 [Compound 239, (2S,4R)-1-((R)-2-(3-(6-(6-ethynyl-3-(2-hydroxyphenyl)cinnolin-7-yl)-2,6-diazaspiro[3.3]heptan-2-yl)isoxazol-5-yl)-3-methylbutanoyl)-4-hydroxy-N-((S)-1-(4-(4-methylthiazol-5-yl)phenyl)ethyl)pyrrolidine-2-carboxamide] | A (“A” indicates maximum degradation ≥75%)
10 | > 100 | < 50 | – | Cc1ncsc1-c1ccc([C@H](C)NC(=O)[C@@H]2C[C@@H](O)CN2C(=O)[C@@H](c2cc(N3CCC(N4CC5(CN(Cc6ccc7cc(-c8ccccc8O)nnc7c6)C5)C4)CC3)no2)C(C)C)cc1 [Compound 244, (2S,4R)-4-hydroxy-1-((R)-2-(3-(4-(6-((3-(2-hydroxyphenyl)cinnolin-7-yl)methyl)-2,6-diazaspiro[3.3]heptan-2-yl)piperidin-1-yl)isoxazol-5-yl)-3-methylbutanoyl)-N-((S)-1-(4-(4-methylthiazol-5-yl)phenyl)ethyl)pyrrolidine-2-carboxamide] | B (“B” indicates maximum degradation ≥50%)
11 | > 10 | < 50 | – | Cc1ncsc1-c1ccc([C@H](C)NC(=O)[C@@H]2C[C@@H](O)CN2C(=O)[C@@H](c2cc(N3CC4(CN(Cc5ccc6nnc(-c7ccccc7O)cc6c5)C4)C3)no2)C(C)C)cc1 [Compound 245, (2S,4R)-4-hydroxy-1-((R)-2-(3-(6-((3-(2-hydroxyphenyl)cinnolin-6-yl)methyl)-2,6-diazaspiro[3.3]heptan-2-yl)isoxazol-5-yl)-3-methylbutanoyl)-N-((S)-1-(4-(4-methylthiazol-5-yl)phenyl)ethyl)pyrrolidine-2-carboxamide] | B (“B” indicates maximum degradation ≥50%)
